Reference: US20240108590A1, “MAINTENANCE OF PROGRAMMED CHRONIC LIVER INJURY OF FAH GENE-DEFICIENT ANIMALS AND APPLICATION THEREOF IN PREPARATION OF HETEROLOGOUS LIVER MODELS” (Jiangsu University, priority 2020, published 2024)
One block for each compound: values may come before it.

Assays:
[1] = tested on: primary human hepatocytes (PHH); test: Measurement of human albumin secretion in serum of PHH-transplanted rats (ELISA); type: in vivo, rat
Experimental: 100 μl of rat peripheral blood was collected through the tail vein, and after coagulation at room temperature, centrifuged at 400-g for 10 minutes, with the supernatant collected to obtain serum. The secretion level of human albumin was tested according to the instructions of the Human Albumin ELISA Quantitation Set kit. Serum was diluted 10-100000 times according to the actual concentration, so that the calculated value falls within the linear range of the standard curve to obtain accurate values.
(§1) 12. Primary Hepatocyte Transplantation and Programmed NTBC Circulation • (1) Preparation before transplantation: Female FRG rats aged 7-8 weeks were intraperitoneally injected with 30 mg/kg Retrorsine 2 weeks before transplantation, and the concentration of NTBC in daily water was reduced from the normal maintenance concentration (5˜8 mg/L) to low concentration (0.2 mg/L) 1 week before transplantation. When the programmed NTBC cycle began, daily NTBC water was provided according to the method of 0.2 mg/L×7 days+5 mg/L×4 days (one cycle period of 11 days in total).

rat livers [2] = test: Ki67 staining of rat livers with or without RS pretreatment; type: in vivo; conditions: RS pretreatment vs none, after 2 months of programmed NTBC controlling
Experimental: 7. Immunohistochemistry • (1) The steps of dewaxing and rehydration are the same as above. • (2) Draw a circle around the sample with an ImmunoPen, drop a drop of 3% H2O2 for 15 minutes at room temperature for blocking endogenous peroxidase. • (3) Wash twice with PBS for 5 minutes each time. • (4) The blocking was carried with 1:20 Normal horse serum (dissolved in 1% BSA-PBS), incubated at room temperature for 20 minutes and washed for 3 times with PBS. • (5) The primary antibody was added, then the slices were put in a humid box, sealed and kept overnight at 4 degrees. • (6) Wash three times with PBS for 5 minutes each time. • (7) Secondary antibody was added and incubated at room temperature for 30 minutes. Wash three times with PBS for 5 minutes each time. • (8) AB solution in ABC kit (1:100 dilution of solution A and B) was added and incubated at room temperature for 30 minutes. Wash three times with PBS for 5 minutes each time. • (9) DAB coloration was carried and the time for coloration was adjusted according to different antibodies. • (10) Hematoxylin counterstaining for 20 minutes. Rinse with tap water for half an hour. • (11) Gradient dehydration: 50% ethanol, 70% ethanol, 80% ethanol, 90% ethanol, 100% ethanol, each for 2 minutes. • (12) After 15-30 minutes of xylene, sections were sealed with neutral resin and saved. […]

FRG rats = test: Liver function test (serum ALT and AST); type: in vivo, rat
Experimental: The content of alanine aminotransferase (ALT) and aspartate aminotransferase (AST) in rat serum was measured according to the instructions of biochemical analyzer FUJI DRI-CHEM 7000V (Fujifilm. Japan).

rat livers [3] = test: Sirius red staining, degree of liver fibrosis; type: in vivo; conditions: programmed NTBC 7+4 compared with 5+4
[4] = tested on: primary human hepatocytes (PHH); test: Repopulation rate of human hepatocytes in FRG rat livers (hNuclei immunostaining); type: in vivo; conditions: cyclic NTBC withdrawal/administration based on stepped withdrawal or body weight change, Fah-deficient rats, preliminary tests
Experimental: as §1
By immunostaining of the human-specific marker hNuclei, the repopulation rates of humanized rat livers can be calculated.

humanized livers = test: Detection of humanized liver tumorigenesis (liver/bodyweight ratio, histology, AFP); conditions: NTBC^P, 7 months after PHH transplantation
Experimental: Under the programmed NTBC controlling scheme, NTBC^P, (7+4: 7 days of 4% NTBC+4 days of 100% NTBC cycle; and Retrorsine pretreatment) mentioned above, humanized livers were obtained and liver/bodyweight ratios were calculated 7 months after transplantation of PHH in FRG rats.

[5] = tested on: Fah−/−Rag2−/−IL2rg−/− rats (FRG rats); test: Survival of FRG rats under NTBC supply / programmed NTBC controlling; type: in vivo, rat
Experimental: Fah^−/−Rag2^−/−IL2rg^−/− rats (FRG rats) were housed in the Experimental Animal Center of Jiangsu University.
In the past feeding, FRG rats were daily supplied with 5-8 mg/L. In the present disclosure, the lowest dose of 5 mg/L NTBC was set as 100% NTBC; According to the weight (250-300 g) and the amount of water (25-50 ml/day) of rats, we can get: • 4% NTBC: equivalent to an average of 0.03 mg/kg/day; • 100% NTBC: equivalent to an average of 0.75 mg/kg/day. • (2) The transplantation was performed under an anesthesia machine using isoflurane. The rat was fixed with its abdomen facing upward, and cleaned and disinfected with iodine and alcohol after dehairing. • (3) By cutting the epidermis and muscle layers, the hepatic portal vein was found. 2×10^6 human primary hepatocytes (resuspended in 800 μl DMEM+10% FBS) were slowly injected with a 26G needle. After completing the injection and paused for a few seconds, the needle was then pulled out, with the needle port quickly pressed with a sterile cotton swab. • (4) After pressing for about 1 minute, with no blood effusion be observed, the muscle and epidermis were sutured and the wound was disinfected with alcohol cotton.
The optimal NTBC maintenance concentration was determined by comparing the survival rate of rats at different NTBC concentrations (0%, 1%, 4%, 10%, 100%).
Due to a long period of the humanization process and in order to further improve the long-term survival rate of rats under liver injury, the inventors designed a series of NTBC dosage regimens, which are called Programmed NTBC controlling scheme with a fixed cycle period (Programmed NTBC controlling, NTBC^P), including 5, 7 and 9 days of maintenance in 4% NTBC conditions, respectively, and 4 days of 100% NTBC recovery after that to alleviate accumulated liver injury (FIG. 2C).

[6] = tested on: hALB-positive hepatocytes; test: Ki67 and hALB counterstaining of humanized livers; type: in vivo, rat; conditions: NTBC^P, 7 months after transplantation
Experimental: 8. Immunofluorescence Staining • (1) Frozen sections (7 μm) were fixed in 4% PFA at room temperature for 10 minutes, or in methanol:acetone (1:1) at −30° C. for 30 minutes. • (2) Wash three times with 0.1% tween-PBS for 5 minutes each time. • (3) 10% goat or donkey serum was used for blocking for 60 minutes at room temperature. • (4) The primary antibody was used for incubation overnight at 4° C. • (5) Wash three times with 0.1% tween-PBS for 5 minutes each time. • (6) The secondary antibody conjugated with fluorescein was used for incubation at room temperature for 60 minutes. • (7) Wash three times with PBS for 5 minutes each time. • (8) DAPI was added and the sections were mounted by mounting medium and preserved.

Afp = test: Quantitative qPCR of rat Afp gene in liver; type: in vivo; conditions: long-term programmed NTBC controlling (5+4 and 7+4)
Experimental: 1 μg RNA was reverse-transcribed into cDNA with Revert Aid RT kit according to manufacturer's instructions. According to the instructions of THUNDERBIRD SYBR qPCR Mix kit, cDNA was amplified and quantitatively analyzed on a quantitative PCR machine. Relative expression levels of target genes were based on ACTB as an internal reference. All data were repeated at least twice.

UGT2B7 [7] = conditions: in rats; cited from earlier work
UGT2B7 [8] = biological target: T1, UGT2B7 (Homo sapiens, UniProt P16662); conditions: in human; cited from earlier work
T1 sequence (P16662 24-529): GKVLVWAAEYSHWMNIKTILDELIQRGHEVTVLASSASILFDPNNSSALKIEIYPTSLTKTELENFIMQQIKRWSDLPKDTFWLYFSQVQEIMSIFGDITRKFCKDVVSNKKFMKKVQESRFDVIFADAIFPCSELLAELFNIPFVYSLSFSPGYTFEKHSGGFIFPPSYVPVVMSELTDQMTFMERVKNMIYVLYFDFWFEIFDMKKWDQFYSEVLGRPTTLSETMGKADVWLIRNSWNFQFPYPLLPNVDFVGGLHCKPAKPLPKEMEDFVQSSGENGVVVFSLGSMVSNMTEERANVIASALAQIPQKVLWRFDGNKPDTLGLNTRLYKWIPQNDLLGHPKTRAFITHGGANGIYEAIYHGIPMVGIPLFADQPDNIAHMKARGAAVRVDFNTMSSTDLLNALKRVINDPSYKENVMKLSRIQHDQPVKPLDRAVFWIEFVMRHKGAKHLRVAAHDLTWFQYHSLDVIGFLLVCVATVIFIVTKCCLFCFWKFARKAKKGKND

UGT2B7 [9] = test: UGT2B7 metabolism test in vivo; parameters: species or system rat; conditions: rats with liver humanization vs control group, after oral AZT
Experimental: Liver humanized and […] FRG rats were orally administered 15 mg/kg zidovudine (Wako), and peripheral blood was collected after 0, 0.5, 1, 2, 4 and 8 hours. After 30 μl of plasma was diluted 2 fold with PBS, the contents of substrates and metabolites were detected by LC-MS/MS (Agilent 1200 HPLC and ABI 4000 mass-spectrometer).

Compound: Retrorsine
human albumin secretion level ([1]; RS pretreatment vs none, within 4 weeks after PHH transplantation, NTBC 7+4): increased significantly
human albumin secretion level ([1]; Retrorsine combined with partial hepatectomy, before development of NTBC^P scheme): 90 µg/mL
proportion of Ki67 positive cells in rat livers (rat livers [2]): significantly lower

Compound: O=C1CCCC(=O)C1C(=O)c1ccc(C(F)(F)F)cc1[N+](=O)[O-] [NTBC, 2-(2-nitro-4-trifluoromethylbenzoyl)-1.3 cyclohexanedione]
levels of ALT and AST (FRG rats; 4% NTBC compared with 10% NTBC): higher levels of ALT and AST
levels of ALT and AST (FRG rats; programmed NTBC 7+4 compared with 5+4): significantly higher
degree of liver fibrosis (rat livers [3]): more significant
human albumin secretion level, mean ([1]; NTBC^P (7+4) with Retrorsine pretreatment, 7 months after PHH transplantation): 1.7 ± 0.3 mg/mL
proportion of human hepatocyte repopulation [4]: less than 10%
AFP gene and protein levels (humanized livers): no abnormal up-regulation
tumor formation (histology) (humanized livers): no tumor formation
liver/bodyweight ratio (humanized livers; vs nontransplanted controls): not significantly increased
median survival time ([5]; NTBC concentration 4% of the maintenance dose (5 mg/L)): 22 days
rats surviving for at least 20 weeks ([5]; PHH-transplanted FRG rats, NTBC^P (7+4) with Retrorsine pretreatment): 6/7
healthy survival of FRG rats ([5]; maintenance of 100% NTBC (5 mg/L in daily water)): at least 1.5 years
proportion of Ki67-positive cells in hALB-positive hepatocytes [6]: more than 10%
expression of rat liver oncogene Afp (Afp): did not lead to abnormal upregulation

AZT-5′-glucuronide concentration (UGT2B7 [9]): significantly higher
Compound: Cc1cn([C@H]2C[C@H](N=[N+]=[N-])[C@@H](CO)O2)c(=O)[nH]c1=O [AZT, zidovudine]
metabolic conversion rate of AZT to AZT-5′-glucuronide (UGT2B7 [7]): 10%
AZT metabolized to AZT-5′-glucuronide (UGT2B7 [8]): 75%
